Reference: patent US20250090466A1, “DRUG DELIVERY COMPOSITIONS AND DEVICES” (Ohio State Innovation Foundation, priority 2022, published 2025)

Legend:
[1] = assumed input value, ref (20); cited from earlier work
[2] = Rose Bengal release from dense PCL capsules with silicone oil carriers into PBS; type: physicochemical; conditions: Silikon 1000 in dense PCL capsule

- dissolution of Rose Bengal in hydrophobic silicone oil [2]: never dissolves in the oil
SMILES: O=C([O-])c1c(Cl)c(Cl)c(Cl)c(Cl)c1-c1c2cc(I)c(=O)c(I)c-2oc2c(I)c([O-])c(I)cc12.[Na+].[Na+] [Rose Bengal, Rose Bengal sodium salt]
- RB diffusivity in PBS [1]: 4.8×10^−10 m^2 s^−1
